In US4778824A, “Method for suppressing a transplantation immunity and treating an allergic disease and an autoimmune disease” (Zaidan Hojin Biseibutsu Kagaku Kenkyu Kai, priority 1984, dated 1988):
Entries after “also recorded” stand apart in the source; their conditions may differ.

Legend:
[1] = system: Skin allograft rejection (SHR to Fischer rats); experiment: Inhibition of rejection of skin allograft; assay type: in vivo
From the text: (§1) In the next place, the present inventors conducted a skin graft test with rats. In accordance with the method of Denham et al. (Denham et al., International Archives of Allergy and Applied Immunology, vol. 62, pp. 443-458, 1980), the skin of the tail of SHR rats was peeled and allografted onto Fischer rats. […] The inhibitory action of spergualin on tissue rejections is expected to manifest itself not only in skin transplantation but also in the transplantation of such organs as the kidney, heart, spleen, lung, liver, bone marrow and endocrine organs.
(§2) Skin sections (5×10 mm) were peeled from the tails of SHR rats (female, 10 wk old) and transplanted to Fischer rats (female, 10 wk old) on the back. Varying doses of spergualin were administered intraperitoneally for a consecutive period of 10 or 20 days starting on the day following the transplantation. Complete necrosis of the graft was used as a measure of rejection and the inhibitory action of the compound was evaluated in terms of how long the rejection was postponed. […] The longer the period of administration, the greater the inhibitory action.

bone marrow = experiment: Bone marrow inhibition in the skin allograft test; assay type: in vivo, Fischer rats; settings: i.p., 10 or 20 days
From the text: as §1, §2

mice = settings: cited from earlier work

Structure (SMILES): N=C(N)NCCCCC(O)CC(=O)NC(O)C(=O)NCCCCNCCCN (stereo not drawn) [spergualin, Spergualin]
- dose dependence of inhibitory action on skin allograft rejection ([1]; i.p., 10 or 20 days): dose-dependent
- inhibition of the rejection ([1]; throughout the administration period): Complete inhibition of the rejection
- inhibition of the bone marrow (bone marrow): No inhibition of the bone marrow was observed; also recorded: No such side effects as bone marrow inhibition were observed
- cumulative toxicity (mice): No cumulative toxicity was observed
- lethality (mice; gradual intravenous administration of 80 mg/kg): not lethal
- LD50 (mice; intraperitoneal): approximately 150 mg/kg
